Results on three molecules are retold here after US6369225B1, “Compounds having activity as inhibitors of cytochrome P450RAI” (Allergan Sales, Inc., priority 2000, dated 2002).

Data set [1] has as its target T1, RARγ (Homo sapiens, UniProt P13631).
T1 sequence (P13631 185-419 limits assumed): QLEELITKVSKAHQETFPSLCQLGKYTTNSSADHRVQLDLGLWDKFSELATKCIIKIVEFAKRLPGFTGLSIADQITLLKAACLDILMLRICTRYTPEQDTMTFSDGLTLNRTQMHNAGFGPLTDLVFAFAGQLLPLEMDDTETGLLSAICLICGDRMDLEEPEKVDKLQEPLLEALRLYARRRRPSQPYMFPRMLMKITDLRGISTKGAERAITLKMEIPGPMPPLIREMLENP
In words: chimeric receptor transactivation assay, RARγ. The format is cell-based. The settings on record: EC50 line of EC50/(EFFICACY)/Kd, read-out: RAR EC50 γ. An excerpt:
(§1) Assays described below measure the ability of a compound to bind to, and/or activate various retinoid receptor subtypes. When in these assays a compound binds to a given receptor subtype and activates the transcription of a reporter gene through that subtype, then the compound is considered an agonist of that receptor subtype. […] In the below described assays the ability of the compounds to bind to RARα, RARβ, RARγ, RXRα, RXRβ and RXRγ receptors, and the ability or inability of the compounds to activate transcription of a reporter gene through these receptor subtypes can be tested.
(§2) As far as specific assays are concerned, a chimeric receptor transactivation assay which tests for agonist-like activity in the RARα, RARβ, AND RARγ, receptor subtypes, and which is based on work published by Feigner P. L. and Holm M. (1989) Focus, 112 is described in detail in U.S. Pat. No. 5,455,265. The specification of U.S. Pat. No. 5,455,265 is hereby expressly incorporated by reference. The numeric results obtained with several preferred compounds of this invention in this assay are shown below in Table 1.

Data set [2] has as its target T2, RARα (Homo sapiens, UniProt P10276).
T2 sequence (P10276 183-462 limits assumed): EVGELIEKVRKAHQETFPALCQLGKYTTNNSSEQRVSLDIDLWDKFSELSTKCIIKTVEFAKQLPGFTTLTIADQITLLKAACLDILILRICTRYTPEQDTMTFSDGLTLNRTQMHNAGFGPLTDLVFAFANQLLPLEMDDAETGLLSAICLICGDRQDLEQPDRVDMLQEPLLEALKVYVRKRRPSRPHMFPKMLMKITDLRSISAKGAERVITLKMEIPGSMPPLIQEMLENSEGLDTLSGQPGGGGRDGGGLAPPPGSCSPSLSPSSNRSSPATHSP
In words: chimeric receptor transactivation assay, RARα. The format is cell-based. The settings on record: EC50 line of EC50/(EFFICACY)/Kd, read-out: RAR EC50 α.
Text: as §1, §2

The next data set deals with T3, P450RAI-1 (Homo sapiens, UniProt O43174).
T3 construct: expressed in transfected cells; host or cells: HeLa cells, stably transfected, hygromycin selection
T3 sequence (O43174 1-497): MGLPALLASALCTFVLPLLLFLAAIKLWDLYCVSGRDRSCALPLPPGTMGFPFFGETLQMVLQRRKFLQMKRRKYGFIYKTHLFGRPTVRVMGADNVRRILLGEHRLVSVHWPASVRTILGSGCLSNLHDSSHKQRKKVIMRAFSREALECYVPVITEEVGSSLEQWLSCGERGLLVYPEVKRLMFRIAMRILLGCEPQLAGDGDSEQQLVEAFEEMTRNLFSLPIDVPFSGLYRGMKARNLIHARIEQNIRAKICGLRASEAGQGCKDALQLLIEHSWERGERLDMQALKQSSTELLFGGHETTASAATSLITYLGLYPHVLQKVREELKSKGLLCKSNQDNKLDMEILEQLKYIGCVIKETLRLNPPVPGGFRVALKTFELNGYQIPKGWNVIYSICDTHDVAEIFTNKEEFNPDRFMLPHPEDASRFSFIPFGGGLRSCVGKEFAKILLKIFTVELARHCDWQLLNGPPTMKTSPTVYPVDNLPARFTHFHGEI
As to the kind of experiment: P450RAI-1 cell-based inhibitor assay. Particulars: P450RAI-1 stably transfected HeLa cells, [3H]-RA metabolism, 3 hours at 37° C.; read-out: P450RAI INHIBITION DATA INTACT HELA IC50. The method in brief:
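HeLa cells stably expressing the enzyme (5×10^5/well) incubated 3 h at 37 °C with 0.05 μCi [3H]-all-trans-RA and compound at 10, 1 or 0.1 μM in triplicate. Water-soluble radioactive metabolites counted by scintillation; IC50 derived manually from log-transformed data.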

The target in data set [3] is T4, RARβ (Homo sapiens, UniProt P10826).
T4 sequence (P10826 183-417 limits assumed): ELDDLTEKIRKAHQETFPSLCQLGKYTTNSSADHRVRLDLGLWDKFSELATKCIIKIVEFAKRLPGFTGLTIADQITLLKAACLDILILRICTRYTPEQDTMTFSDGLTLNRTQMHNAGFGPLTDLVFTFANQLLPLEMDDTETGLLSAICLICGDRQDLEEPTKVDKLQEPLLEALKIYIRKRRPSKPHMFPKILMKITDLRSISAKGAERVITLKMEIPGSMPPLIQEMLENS
In words: chimeric receptor transactivation assay, RARβ. Type of data set: cell-based. Particulars: EC50 line of EC50/(EFFICACY)/Kd, read-out: RAR EC50 β.
Text: as §1, §2

For another data set, the system named is skin of hairless mice. As to the kind of experiment: topical skin irritation test in hairless mice. The format is in vivo, mouse. Particulars: topical in acetone, once daily days 1 through 5, mean ±SD, range 0-21. An excerpt: Mice were housed individually throughout the dosing period.
Doses are disclosed as nmol/25 g.
The grading scale used is as follows:
Values can range from 0-9.
Values can range from 0-8.

The target in data set [4] is T5, RARγ (Homo sapiens, UniProt P13631).
T5 sequence (P13631 1-454): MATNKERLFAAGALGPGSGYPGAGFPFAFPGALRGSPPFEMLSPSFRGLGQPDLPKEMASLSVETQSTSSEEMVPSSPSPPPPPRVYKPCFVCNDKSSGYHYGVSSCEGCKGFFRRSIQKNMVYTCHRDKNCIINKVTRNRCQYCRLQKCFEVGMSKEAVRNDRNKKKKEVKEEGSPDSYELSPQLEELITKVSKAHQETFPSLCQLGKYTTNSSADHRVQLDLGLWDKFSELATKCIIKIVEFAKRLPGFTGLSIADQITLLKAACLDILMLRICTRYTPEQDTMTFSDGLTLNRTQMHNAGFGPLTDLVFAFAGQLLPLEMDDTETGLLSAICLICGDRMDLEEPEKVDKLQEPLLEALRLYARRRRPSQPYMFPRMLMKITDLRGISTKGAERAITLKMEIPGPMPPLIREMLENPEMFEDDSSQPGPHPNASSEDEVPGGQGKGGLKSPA
As to the kind of experiment: ligand binding assay, RARγ. The settings on record: Kd line of EC50/(EFFICACY)/Kd, read-out: RAR Kd γ.

Data set [5] has as its target T6, RARα (Homo sapiens, UniProt P10276).
T6 sequence (P10276 1-462): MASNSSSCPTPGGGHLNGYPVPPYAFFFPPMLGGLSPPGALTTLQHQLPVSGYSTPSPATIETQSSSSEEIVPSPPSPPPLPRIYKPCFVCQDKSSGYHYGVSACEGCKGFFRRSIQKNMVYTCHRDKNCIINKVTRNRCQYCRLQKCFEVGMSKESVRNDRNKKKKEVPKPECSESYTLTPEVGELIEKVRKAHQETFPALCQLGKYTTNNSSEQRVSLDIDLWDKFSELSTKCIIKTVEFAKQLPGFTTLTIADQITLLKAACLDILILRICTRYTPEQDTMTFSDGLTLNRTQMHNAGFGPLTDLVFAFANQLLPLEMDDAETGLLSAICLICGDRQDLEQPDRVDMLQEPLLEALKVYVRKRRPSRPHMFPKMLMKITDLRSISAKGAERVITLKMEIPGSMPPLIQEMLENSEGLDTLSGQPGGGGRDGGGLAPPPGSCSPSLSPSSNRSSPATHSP
In words: ligand binding assay, RARα. The settings on record: Kd line of EC50/(EFFICACY)/Kd, read-out: RAR Kd α.
Text: as §1
A holoreceptor transactivation assay and a ligand binding assay which measure the antagonist/agonist like activity of the compounds of the invention, or their ability to bind to the several retinoid receptor subtypes, respectively, are described in published PCT Application No. WO WO93/11755 (particularly on pages 30-33 and 37-41) published on Jun. 24, 1993, the specification of which is also incorporated herein by reference. A detailed experimental procedure for holoreceptor transactivations has been described by Heyman et al. Cell 68, 397-406, (1992); Allegretto et al. J. Biol. Chem. 268, 26625-26633, and Mangelsdorf et al. The Retinoids: Biology, Chemistry and Medicine, pp 319-349, Raven Press Ltd., New York, which are expressly incorporated herein by reference. The results obtained in this assay are expressed in EC50 numbers, as they are also in the chimeric receptor transactivation assay. The results of ligand binding assay are expressed in Kd numbers. (See Cheng et al. Biochemical Pharmacology Vol. 22 pp 3099-3108, expressly incorporated herein by reference.)
The results if the ligand binding assay for several preferred compounds of the invention are included in Table 1.

In data set [6] the target is T7, RARβ (Homo sapiens, UniProt P10826).
T7 sequence (P10826 1-455): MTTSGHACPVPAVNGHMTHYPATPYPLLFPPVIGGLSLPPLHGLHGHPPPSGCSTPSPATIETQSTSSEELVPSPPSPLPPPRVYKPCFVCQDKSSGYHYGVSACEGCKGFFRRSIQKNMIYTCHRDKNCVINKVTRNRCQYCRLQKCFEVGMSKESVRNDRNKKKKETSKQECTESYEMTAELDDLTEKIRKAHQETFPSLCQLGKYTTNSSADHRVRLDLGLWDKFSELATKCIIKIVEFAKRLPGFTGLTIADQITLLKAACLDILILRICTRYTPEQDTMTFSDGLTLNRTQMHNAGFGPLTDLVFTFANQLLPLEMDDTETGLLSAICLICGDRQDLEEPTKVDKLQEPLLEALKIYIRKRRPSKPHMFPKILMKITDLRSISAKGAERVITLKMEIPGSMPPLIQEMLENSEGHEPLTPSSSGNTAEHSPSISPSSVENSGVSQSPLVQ
In words: ligand binding assay, RARβ. Particulars: Kd line of EC50/(EFFICACY)/Kd, read-out: RAR Kd β.

As a reminder, the EC50 is the concentration needed to bring the measured effect to its halfway point. By IC50 is commonly meant the midpoint of a concentration-inhibition curve. Usually Kd stands for the constant that tells how readily two partners part at equilibrium.

On to `CC1(C)CCC(=O)c2ccc(C#Cc3ccc(C(=O)O)c(F)c3)cc21` [Compound 10, 2-Fluoro-4-(8,8-dimethyl-5-oxo-5,6,7,8-tetrahydro-naphthalen-2yl-ethynyl)benzoic Acid], for which the concentration giving a half-maximal response (EC50) on RARγ [1] was found to be 0.006 µM; on RARα [2], 0.057 µM; at RARβ [3] it was 0.0003 µM. At P450RAI-1, the IC50 was found to be 0.7 µM.

Turning to `CN(C1CC1)C1CCC(C)(C)c2cc(C#Cc3ccc(C(=O)O)c(F)c3)ccc21` (stereo not shown) [Compound 13, 4-[5-(Cyclopropyl-methyl-amino)-8,8-dimethyl-5,6,7,8-tetrahydro-naphthalene-2-yl-ethynyl]-2-fluoro Benzoic Acid], the 50% effective concentration (EC50) worked out at 0.116 µM at RARγ [1] and 0.0032 µM at RARβ [3]. In addition, the half-maximal inhibitory concentration (IC50) on P450RAI-1 was determined as 3.1 µM.

Turning to `CC1(C)CC(C)(C)c2cc(C#Cc3ccc(CC(=O)O)cc3)cc(C3CC3)c2O1` [Compound 36, [4-(8-Cyclopropyl-2,2,4,4-tetramethyl-chroman-6-yl-ethynyl)phenyl]acetic Acid], the entries for the “Cutaneous Toxicity Score (Blackjack Score)” value with skin of hairless mice (100 nmole (nmol/25 g)) and in the data set on skin of hairless mice (1000 nmole (nmol/25 g)) were 1 ± 1 and 11 ± 0, respectively. Besides, the dissociation constant (Kd) stood at 0.492 µM at RARγ [4], 13 µM at RARα [5] and 4.9 µM at RARβ [6]. Also, at P450RAI-1, the IC50 was found to be 0.033 µM.
